From ChEMBL document CHEMBL1133622, “Probes for narcotic receptor-mediated phenomena. 27. Synthesis and pharmacological evaluation of selective delta-opioid receptor agonists from 4-[(alphaR)-alpha-(2S,5R)-4-substituted-2, 5-dimethyl-1-piperazinyl-3-methoxybenzyl]-N,N-diethylbenzamides and their enantiomers” (J Med Chem, 2000)

Columns and labels:
[1] = target: Delta-type opioid receptor (Rattus norvegicus) (UniProt P33533); experiment: Percent inhibition of SNC80 stimulated [35S]GTP-gamma-S, binding at 10 uM; format: functional
Chain of Delta-type opioid receptor (Rattus norvegicus) (P33533 whole entry): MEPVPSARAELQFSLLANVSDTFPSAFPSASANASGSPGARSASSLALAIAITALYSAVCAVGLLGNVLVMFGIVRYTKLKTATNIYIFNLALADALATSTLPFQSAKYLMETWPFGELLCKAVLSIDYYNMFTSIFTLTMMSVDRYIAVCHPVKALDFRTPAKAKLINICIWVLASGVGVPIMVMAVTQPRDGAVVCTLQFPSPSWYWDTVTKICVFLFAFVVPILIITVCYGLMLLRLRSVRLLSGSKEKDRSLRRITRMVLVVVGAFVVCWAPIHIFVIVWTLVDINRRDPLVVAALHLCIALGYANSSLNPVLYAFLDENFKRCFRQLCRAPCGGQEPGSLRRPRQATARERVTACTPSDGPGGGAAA

[2] = target: Delta-type opioid receptor (Rattus norvegicus) (UniProt P33533); experiment: Percent stimulation of [35S]GTP-gamma-S, binding at 10 uM; format: functional
[3] = target: Delta-type opioid receptor (Rattus norvegicus, UniProt P33533); experiment: Inhibition of [3H]-DADLE binding to rat brain membrane Opioid receptor delta 1
Chain of Delta-type opioid receptor (P33533 whole entry): as above

[4] = target: Delta-type opioid receptor (Rattus norvegicus) (UniProt P33533); experiment: (§1) Percent inhibition of SNC80 stimulated [35S]GTP-gamma-S, binding by the compound (10 uM); format: functional
Rattus norvegicus [5] = species on record: Rattus norvegicus; experiment: as §1; format: functional
Rattus norvegicus [6] = species on record: Rattus norvegicus; experiment: Percent stimulation of [35S]GTP-gamma-S, binding by the compound (10 uM); format: functional

CCN(CC)C(=O)c1ccc([C@H](c2cccc(OC)c2)N2C[C@@H](C)NC[C@@H]2C)cc1 showed an inhibition [1] of 11%, a Stimulation [2] of 63% and a Ki [3] of 4.7 nM.
CCN(CC)C(=O)c1ccc([C@H](c2cccc(OC)c2)N2C[C@@H](C)N(C)C[C@@H]2C)cc1 was tested, and the inhibition [1] was 18%, the Stimulation [2] was 25% and the Ki [3] was 4.5 nM.
With CCN(CC)C(=O)c1ccc([C@H](c2cccc(OC)c2)N2C[C@@H](C)N(CCc3ccccc3)C[C@@H]2C)cc1 the inhibition [1] was 30%, the Stimulation [2] was 10% and the Ki [3] was 30.6 nM.
CCN(CC)C(=O)c1ccc([C@H](c2cccc(OC)c2)N2C[C@@H](C)N(CC)C[C@@H]2C)cc1 was tested, and the Stimulation [2] was 45%, the Ki [3] was 5.2 nM and the inhibition [4] was 13%.
With CCCCN1C[C@H](C)N([C@H](c2ccc(C(=O)N(CC)CC)cc2)c2cccc(OC)c2)C[C@H]1C the Inhibition (Rattus norvegicus [5]) was 19%, the Stimulation [2] was 66% and the Ki [3] was 2.7 nM.
CCCCCCN1C[C@H](C)N([C@H](c2ccc(C(=O)N(CC)CC)cc2)c2cccc(OC)c2)C[C@H]1C gave an inhibition [1] of 34%, a Stimulation [2] of 21% and a Ki [3] of 10.4 nM.
CCCCCN1C[C@H](C)N([C@H](c2ccc(C(=O)N(CC)CC)cc2)c2cccc(OC)c2)C[C@H]1C was tested, and the Stimulation [2] was 26%, the Ki [3] was 4.7 nM and the inhibition [4] was 28%.
CCN(CC)C(=O)c1ccc([C@H](c2cccc(OC)c2)N2C[C@@H](C)N(CC3CC3)C[C@@H]2C)cc1 gave a Stimulation [2] of 48%, a Ki [3] of 3.5 nM and an inhibition [4] of 18%.
In the case of C/C=C/CN1C[C@H](C)N([C@H](c2ccc(C(=O)N(CC)CC)cc2)c2cccc(OC)c2)C[C@H]1C, the inhibition [1] is reported as 6.3%, the Stimulation [2] is reported as 130% and the Ki [3] is reported as 1.9 nM.
Work on CCN(CC)C(=O)c1ccc([C@H](c2cccc(OC)c2)N2C[C@@H](C)N(Cc3ccccc3)C[C@@H]2C)cc1 yielded an inhibition [1] of 0%, a Stimulation [2] of 144% and a Ki [3] of 6.2 nM.
For C=CCN1C[C@H](C)N([C@H](c2ccc(C(=O)N(CC)CC)cc2)c2cccc(OC)c2)C[C@H]1C [SNC-80], the Inhibition (Rattus norvegicus [5]) was 0% and the Stimulation (Rattus norvegicus [6]) was 128%.
Work on CCN(CC)C(=O)c1ccc([C@H](c2cccc(OC)c2)N2C[C@@H](C)N(CCCc3ccccc3)C[C@@H]2C)cc1 yielded an inhibition [1] of 13%, a Stimulation [2] of 18% and a Ki [3] of 16.7 nM.
C=C(C)CN1C[C@H](C)N([C@H](c2ccc(C(=O)N(CC)CC)cc2)c2cccc(OC)c2)C[C@H]1C showed an inhibition [1] of 2.3%, a Stimulation [2] of 119% and a Ki [3] of 4.8 nM.
